Results on 28 compounds are retold here after patent US20230373985A1 (Origenis Gmbh, priority 2020, published 2023).

The test has as its target T1, wt human TYK2, catalytic site (Homo sapiens, UniProt P29597).
T1 construct: wt human TYK2, catalytic site; purchased SignalChem
T1 sequence (P29597 897-1176 limits assumed): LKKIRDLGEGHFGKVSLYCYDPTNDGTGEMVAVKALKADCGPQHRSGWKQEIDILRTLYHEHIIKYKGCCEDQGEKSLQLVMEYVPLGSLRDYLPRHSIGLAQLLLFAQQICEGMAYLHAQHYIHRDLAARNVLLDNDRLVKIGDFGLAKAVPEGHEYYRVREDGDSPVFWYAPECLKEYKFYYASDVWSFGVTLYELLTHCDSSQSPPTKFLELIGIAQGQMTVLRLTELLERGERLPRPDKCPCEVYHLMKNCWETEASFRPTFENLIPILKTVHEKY
As to the kind of experiment: HTRF KinEASE assay, TYK2. It counts as biochemical. To be noted: 1 μM ATP; read-out: IC50, Activity Toward TYK2. As for the experimental part:
Basic protocol for HTRF KinEASE assay (Cisbio/FRA) inhibitor studies involved two steps: • Enzymatic step: Addition of 4 μL of test compound in corresponding DMSO dilutions, 4 μL of kinase/substrate mixture, 2 μL of ATP into 384 well small volume plates. Incubation for at least 30 minutes at room temperature. • Detection step: Addition of 5 μL antibody and 5 μL streptavidin-XL665, read plate after 60 minutes. Data analysis of emission ratios according KinEASE assay protocol.
(§1) Kinase and assay components were adjusted to final concentrations according to kit protocol. For TYK2: 2 nM wt human TYK2, catalytic site (SignalChem/CAN), 1 μM HTRF KinEASE-TK Substrate-biotin, 1 μM ATP in 1× Kinase Buffer. For JAK1: 4 nM wt human JAK1, catalytic site (ThermoFisher/USA), 1 μM HTRF KinEASE-TK Substrate-biotin, 2.5 μM ATP in 1× Kinase Buffer. For JAK2: 1 nM wt human JAK2, catalytic site (SignalChem/CAN), 1 μM HTRF KinEASE-TK Substrate-biotin, 100 μM ATP in 1× Kinase Buffer.
as §1
`CC1(C)CN(C(=O)c2ccc(Nc3cn(-c4c(Cl)cccc4Cl)nc3C(N)=O)nc2)C1` [compound 465, 1-(2,6-dichlorophenyl)-4-((5-(3,3-dimethylazetidine-1-carbonyl)pyridin-2-yl)amino)-1H-pyrazole-3-carboxamide]: the half-inhibitory concentration (IC50) was in the range of 100 to 1000 nM.

Take `NC(=O)c1nn(-c2c(Cl)cccc2Cl)cc1Nc1ccc(-n2nc3c(c2C(F)(F)F)CCCC3)cc1` [compound 236, 1-(2,6-dichlorophenyl)-4-((4-(3-(trifluoromethyl)-4,5,6,7-tetrahydro-2H-indazol-2-yl)phenyl)amino)-1H-pyrazole-3-carboxamide]: the IC50 lay within 100 to 1000 nM. In the case of `CC(C)n1nc(C(F)(F)F)nc1-c1ccc(Nc2cn(-c3c(Cl)cccc3Cl)nc2C(N)=O)cc1` [compound 280, 1-(2,6-dichlorophenyl)-4-((4-(1-isopropyl-3-(trifluoromethyl)-1H-1,2,4-triazol-5-yl)phenyl)amino)-1H-pyrazole-3-carboxamide], the IC50 lay within 100 to 1000 nM. Regarding `Cc1cc(Nc2cn(-c3c(Cl)cccc3Cl)nc2C(N)=O)cnc1-n1cccn1` [compound 346, 1-(2,6-dichlorophenyl)-4-((5-methyl-6-(1H-pyrazol-1-yl)pyridin-3-yl)amino)-1H-pyrazole-3-carboxamide], the IC50 was in the range of 100 to 1000 nM. Under `NC(=O)c1nn(-c2c(Cl)cccc2Cl)cc1Nc1ccc(-c2nc(C(F)(F)F)cn2C2COC2)cc1` [compound 301, 1-(2,6-dichlorophenyl)-4-((4-(1-(oxetan-3-yl)-4-(trifluoromethyl)-1H-imidazol-2-yl)phenyl)amino)-1H-pyrazole-3-carboxamide] stands under 10 nM.

Take `NC(=O)c1nn(-c2c(Cl)cccc2Cl)cc1Nc1ccc(N2CCCC2=O)nc1` [compound 345, 1-(2,6-dichlorophenyl)-4-((6-(2-oxopyrrolidin-1-yl)pyridin-3-yl)amino)-1H-pyrazole-3-carboxamide]: the IC50 fell in the range of 100 to 1000 nM. On to `CCn1cc(C(F)(F)F)nc1-c1ccc(Nc2cn(-c3c(Cl)cccc3Cl)nc2C(N)=O)cn1` [compound 339, 1-(2,6-dichlorophenyl)-4-((6-(1-ethyl-4-(trifluoromethyl)-1H-imidazol-2-yl)pyridin-3-yl)amino)-1H-pyrazole-3-carboxamide], for which the IC50 lay within 100 to 1000 nM. Then `CCc1nc(C(F)(F)F)nn1-c1ccc(Nc2cn(-c3c(Cl)cccc3Cl)nc2C(N)=O)cn1` [compound 329, 1-(2,6-dichlorophenyl)-4-((6-(5-ethyl-3-(trifluoromethyl)-1H-1,2,4-triazol-1-yl)pyridin-3-yl)amino)-1H-pyrazole-3-carboxamide], with 100 to 1000 nM; and `CCn1nc(C(F)(F)F)nc1-c1ccc(Nc2cn(-c3c(F)cccc3Cl)nc2C(N)=O)cc1` [compound 289, 1-(2-chloro-6-fluorophenyl)-4-((4-(1-ethyl-3-(trifluoromethyl)-1H-1,2,4-triazol-5-yl)phenyl)amino)-1H-pyrazole-3-carboxamide], with 100 to 1000 nM. Under `CN(C)CCn1cc(C(F)(F)F)nc1-c1ccc(Nc2cn(-c3c(Cl)cccc3Cl)nc2C(N)=O)cc1` [compound 306, 1-(2,6-dichlorophenyl)-4-((4-(1-(2-(dimethylamino)ethyl)-4-(trifluoromethyl)-1H-imidazol-2-yl)phenyl)amino)-1H-pyrazole-3-carboxamide] stands 10 to 100 nM. On to `NC(=O)c1nn(-c2c(Cl)cccc2Cl)cc1Nc1ccc(C(=O)N2CC[C@H](N)C2)cn1` [compound 368, (S)-4-((5-(3-aminopyrrolidine-1-carbonyl)pyridin-2-yl)amino)-1-(2,6-dichlorophenyl)-1H-pyrazole-3-carboxamide], for which the IC50 lay in the range of 100 to 1000 nM.

As to `CCNC(=O)c1ccc(Nc2cn(-c3c(F)cccc3OC)nc2C(N)=O)cn1` [compound 25, 5-((3-carbamoyl-1-(2-fluoro-6-methoxyphenyl)-1H-pyrazol-4-yl)amino)-N-ethylpicolinamide], the IC50 was 100 to 1000 nM. In the case of `Cn1nnc(-c2ccc(Nc3cn(-c4c(Cl)cccc4Cl)nc3C(N)=O)nc2)n1` [compound 434, 1-(2,6-dichlorophenyl)-4-((5-(2-methyl-2H-tetrazol-5-yl)pyridin-2-yl)amino)-1H-pyrazole-3-carboxamide], the IC50 lay in the range of 100 to 1000 nM. Then `Cc1cccc2nnc(-c3ccc(Nc4cn(-c5c(Cl)cc(F)cc5Cl)nc4C(N)=O)cn3)n12` [compound 477, 1-(2,6-dichloro-4-fluorophenyl)-4-((6-(5-methyl-[1,2,4]triazolo[4,3-a]pyridin-3-yl)pyridin-3-yl)amino)-1H-pyrazole-3-carboxamide], with 10 to 100 nM; and `NC(=O)c1nn(-c2c(Cl)cccc2Cl)cc1Nc1ccc(C(=O)N2CC(F)(F)C(F)(F)C2)cn1` [compound 369, 1-(2,6-dichlorophenyl)-4-((5-(3,3,4,4-tetrafluoropyrrolidine-1-carbonyl)pyridin-2-yl)amino)-1H-pyrazole-3-carboxamide], with 100 to 1000 nM; and `CC(C)c1nc(C(F)(F)F)nn1-c1ccc(Nc2cn(-c3c(Cl)cccc3Cl)nc2C(N)=O)cc1` [compound 274, 1-(2,6-dichlorophenyl)-4-((4-(5-isopropyl-3-(trifluoromethyl)-1H-1,2,4-triazol-1-yl)phenyl)amino)-1H-pyrazole-3-carboxamide], with 100 to 1000 nM. Under `CCNC(=O)c1ccc(Nc2cn(-c3c(F)cccc3F)nc2C(N)=O)cn1` [compound 24, 5-((3-carbamoyl-1-(2,6-difluorophenyl)-1H-pyrazol-4-yl)amino)-N-ethylpicolinamide] stands 100 to 1000 nM; under `Cc1cccc2[nH]nc(-c3ccc(Nc4cn(-c5c(Cl)cccc5Cl)nc4C(N)=O)cn3)c12` [compound 427, 1-(2,6-dichlorophenyl)-4-((6-(4-methyl-3H-indazol-3-ylidene)-1,6-dihydropyridin-3-yl)amino)-1H-pyrazole-3-carboxamide], 100 to 1000 nM; under `COCc1nc(C(F)(F)F)nn1-c1ccc(Nc2cn(-c3c(Cl)cccc3Cl)nc2C(N)=O)cn1` [compound 328, 1-(2,6-dichlorophenyl)-4-((6-(5-(methoxymethyl)-3-(trifluoromethyl)-1H-1,2,4-triazol-1-yl)pyridin-3-yl)amino)-1H-pyrazole-3-carboxamide], 100 to 1000 nM. Then `CCn1nc(C(F)(F)F)nc1-c1ccc(Nc2cn(-c3c(Cl)cccc3Cl)nc2C(N)=O)cc1` [compound 278, 1-(2,6-dichlorophenyl)-4-((4-(1-ethyl-3-(trifluoromethyl)-1H-1,2,4-triazol-5-yl)phenyl)amino)-1H-pyrazole-3-carboxamide], with 100 to 1000 nM. On to `Cc1cc(C(F)(F)F)nn1-c1ccc(Nc2cn(-c3c(Cl)cccc3Cl)nc2C(N)=O)cc1` [compound 257, 1-(2,6-dichlorophenyl)-4-((4-(5-methyl-3-(trifluoromethyl)-1H-pyrazol-1-yl)phenyl)amino)-1H-pyrazole-3-carboxamide], for which the IC50 lay within 100 to 1000 nM. Take `NC(=O)c1nn(-c2c(Cl)cccc2Cl)cc1Nc1ccc(-n2c(=O)sc3ccccc32)cc1` [compound 201, 1-(2,6-dichlorophenyl)-4-((4-(2-oxobenzo[d]thiazol-3(2H)-yl)phenyl)amino)-1H-pyrazole-3-carboxamide]: the IC50 lay in the range of 100 to 1000 nM. Under `NC(=O)c1nn(-c2c(F)cccc2F)cc1Nc1ccc(N)cn1` [compound 6, 4-((5-aminopyridin-2-yl)amino)-1-(2,6-difluorophenyl)-1H-pyrazole-3-carboxamide] stands 100 to 1000 nM; under `CCOc1cccc(Cl)c1-n1cc(Nc2cnn(C)c2)c(C(N)=O)n1` [compound 372, 1-(2-chloro-6-ethoxyphenyl)-4-((1-methyl-1H-pyrazol-4-yl)amino)-1H-pyrazole-3-carboxamide], 100 to 1000 nM; under `NC(=O)c1nn(-c2c(Cl)cccc2Cl)cc1Nc1ccc(-n2nnc3ccccc32)cc1` [compound 81, 4-((4-(1H-benzo[d][1,2,3]triazol-1-yl)phenyl)amino)-1-(2,6-dichlorophenyl)-1H-pyrazole-3-carboxamide], 100 to 1000 nM. Then `CCc1ncnn1-c1ccc(Nc2cn(-c3c(Cl)cccc3Cl)nc2C(N)=O)cn1` [compound 343, 1-(2,6-dichlorophenyl)-4-((6-(5-ethyl-1H-1,2,4-triazol-1-yl)pyridin-3-yl)amino)-1H-pyrazole-3-carboxamide], with 100 to 1000 nM. Then `Cc1cc(Nc2cn(-c3ccccc3F)nc2C(N)=O)ncn1` [compound 5, 1-(2-fluorophenyl)-4-((6-methylpyrimidin-4-yl)amino)-1H-pyrazole-3-carboxamide], with 100 to 1000 nM. Turning to `NC(=O)c1nn(-c2c(Cl)cccc2Cl)cc1Nc1ccc(-n2cncn2)nc1` [compound 337, 4-((6-(1H-1,2,4-triazol-1-yl)pyridin-3-yl)amino)-1-(2,6-dichlorophenyl)-1H-pyrazole-3-carboxamide], the IC50 was 100 to 1000 nM.

Broadly, the IC50 is the midpoint of a concentration-inhibition curve.
